The nature of assay [1]: Cytotoxicity against human MIAPaCa2 cells assessed as cell viability after 48 hrs by SRB assay. It counts as functional, cell-based. As to conditions: MIA PaCa-2, 48 h. On the technique in general: In SRB staining, fixed cells bind dye roughly in proportion to their protein.
A further assay concerns MCF7. The assay can be described thus: Cytotoxicity against human MCF7 cells assessed as cell viability after 48 hrs by SRB assay. It counts as functional, cell-based. As to conditions: MCF7, 48 h.
In assay [2] the test system is HeLa. The assay can be described thus: Cytotoxicity against human HeLa cells assessed as cell viability after 48 hrs by SRB assay. It counts as functional, cell-based.
The nature of assay [3]: Cytotoxicity against human DU145 cells assessed as cell viability after 48 hrs by SRB assay. It counts as functional, cell-based. As to conditions: DU-145, 48 h.
A further assay concerns the target Tubulin (Sus scrofa) (UniProt P02554+P02550). The assay can be described thus: Inhibition of porcine brain tubulin polymerization at 5 uM by fluorescence based assay.
Assay [4] relates to HeLa. The assay can be described thus: Induction of cell cycle arrest in human HeLa cells assessed as cell arrest at accumulation at G2/M phase at 5 uM after 24 hrs by flow cytometric analysis (reference value: 25.49%). It counts as functional.
In assay [5] the test system is HeLa. The assay can be described thus: Induction of cell cycle arrest in human HeLa cells assessed as cell arrest at accumulation at G2/M phase at 2 uM after 24 hrs by flow cytometric analysis (reference value: 25.49%). It is filed as functional.
In assay [6] the test system is HeLa. The assay can be described thus: Disruption of microtubule organization in human HeLa cells at 5 uM after 24 hrs by DAPI-FITC staining based confocal microscopic analysis. It is filed as functional, cell-based.
Another assay concerns the target Tubulin (Homo sapiens) (UniProt P68371+Q9H4B7+P0DPH7+P68366+Q13509+Q71U36+P04350+Q3ZCM7+P07437+P68363+Q9BQE3+Q6PEY2+Q13885+Q9BVA1+Q9BUF5). The assay can be described thus: Inhibition of colchicine binding to tubulin (unknown origin) assessed as decrease in tubulin-colchicine complex at 0 to 15 uM incubated for 1 hr by fluorescence based colchicine competitive binding assay. It counts as protein-complex assay.

The test system of assay [7] is HeLa. The assay can be described thus: Induction of apoptosis in human HeLa cells assessed as activation of caspase-3 activity at 2 uM after 24 hrs by ELISA. It is filed as functional. Background: An ELISA detects its analyte on a solid surface through an enzyme-linked reagent.
The subject of assay [8] is HeLa. The assay can be described thus: Induction of apoptosis in human HeLa cells assessed as activation of caspase-3 activity at 4 uM after 24 hrs by ELISA. It is filed as functional.
Assay [9] deals with HeLa. The assay can be described thus: Induction of apoptosis in human HeLa cells assessed as induction of cyclin B1 levels at 5 uM after 24 hrs by Western blot analysis. It is filed as functional, cell-based.
Assay [10] relates to HeLa. The assay can be described thus: Induction of apoptosis in human HeLa cells assessed as activation of cyclin B1 mRNA levels at 5 uM after 24 hrs by semi-quantitative RT-PCR. It counts as functional, cell-based.
The target of a further assay is Tubulin (Sus scrofa, UniProt P02554+P02550). The assay can be described thus: Inhibition of porcine brain tubulin polymerization by fluorescence based assay.

Structures are written as SMILES. Activity calls are given as the source filed them. The calls are words filed in the database; no cut-off is given here.

Chain of Tubulin (Sus scrofa) (P02550 whole entry, looked up): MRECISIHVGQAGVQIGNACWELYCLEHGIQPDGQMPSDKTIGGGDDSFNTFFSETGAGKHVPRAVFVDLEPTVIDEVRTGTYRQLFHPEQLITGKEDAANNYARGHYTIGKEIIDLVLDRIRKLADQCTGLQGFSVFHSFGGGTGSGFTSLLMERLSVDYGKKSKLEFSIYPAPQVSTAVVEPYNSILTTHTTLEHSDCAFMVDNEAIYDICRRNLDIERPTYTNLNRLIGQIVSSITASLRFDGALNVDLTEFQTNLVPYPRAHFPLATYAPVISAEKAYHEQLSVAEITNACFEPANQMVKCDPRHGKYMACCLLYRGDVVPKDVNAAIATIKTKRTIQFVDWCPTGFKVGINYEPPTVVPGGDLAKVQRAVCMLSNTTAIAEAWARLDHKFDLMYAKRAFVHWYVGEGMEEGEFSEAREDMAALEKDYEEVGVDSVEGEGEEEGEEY
Chain of Tubulin (Sus scrofa) (P02554 whole entry, looked up): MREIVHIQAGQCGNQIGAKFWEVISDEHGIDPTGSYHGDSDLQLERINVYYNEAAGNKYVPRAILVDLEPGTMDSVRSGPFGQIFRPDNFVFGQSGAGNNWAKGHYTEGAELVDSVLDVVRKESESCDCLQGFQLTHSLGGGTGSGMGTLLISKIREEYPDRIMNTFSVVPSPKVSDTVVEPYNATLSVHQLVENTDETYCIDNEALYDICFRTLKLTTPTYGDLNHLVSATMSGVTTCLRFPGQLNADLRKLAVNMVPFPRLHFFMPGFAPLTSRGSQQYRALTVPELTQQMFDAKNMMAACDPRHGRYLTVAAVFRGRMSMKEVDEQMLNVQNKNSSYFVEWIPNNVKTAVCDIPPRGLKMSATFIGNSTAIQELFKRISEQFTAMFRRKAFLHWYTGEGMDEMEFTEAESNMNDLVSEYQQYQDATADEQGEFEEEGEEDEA

A word on the IC50: it is the concentration needed to halve the response being measured. By inhibition is commonly meant the percentage by which the read-out fell short of the control. As to `CCc1nn2c(-c3ccc4ccccc4c3)c(-c3cc(OC)c(OC)c(OC)c3)nc2s1`, the IC50 was 1200 nM in assay [1]; 2400 nM in the assay on MCF7; 1600 nM in the assay on HeLa [2]; 4490 nM in [3]; 1700 nM against Tubulin. Moreover, the inhibition on Tubulin (Sus scrofa) is 75.1%; on Tubulin (Homo sapiens), “Dose-dependent effect”. The values for the Activity in the assay with HeLa [4] and in the assay with HeLa [5] were 78.3% and 64.84%, respectively. The result with HeLa [6], with HeLa [9] and in the assay with HeLa [10] was Active. Further, the “fold change (FC)” value in the assay with HeLa [7] and in the assay on HeLa [8] was 2.5 throughout.
On to `CC(=O)O[C@H]1C(=O)[C@@]2(C)[C@H]([C@H](OC(=O)c3ccccc3)[C@]3(O)C[C@H](OC(=O)[C@H](O)[C@@H](NC(=O)c4ccccc4)c4ccccc4)C(C)=C1C3(C)C)[C@]1(OC(C)=O)CO[C@@H]1C[C@@H]2O`, for which the inhibition entry on Tubulin (Homo sapiens) is “inactive”. Further, the outcome in the assay with HeLa [9] and in the assay with HeLa [10] was Active.

Values taken from ChEMBL document CHEMBL3751745, “Aryl-imidazothiadiazole analogues as microtubule disrupting agents” (Medchemcomm, 2015).
